Reference: article PMC7708426, “Identification of potential TNF-α inhibitors: from in silico to in vitro studies” (Scientific Reports, 2020)

System: TNF-α
Test: TNF-α inhibition in LPS-activated THP-1 cells (Human TNF-α ELISA of supernatants)
Format: cell-based
Details: PMA-differentiated THP-1 cells activated with 50 ng/mL LPS, 4 h, mean ± SEM of triplicate
Experimental: THP-1 cells (Human monocytic leukemia cells) were obtained from Biobank facility, ICCBS, University of Karachi, which was purchased from the ECACC (European Collection of Cell Cultures, UK). The cells were cultured in RPMI-1640, supplemented with 10% FBS (fetal bovine serum), 50 µmol/L mercaptoethanol (Merck, Damstadt, Germany), 5.5 mmol/L glucose (BioM Laboratories, Chemical Division, Malaysia), 2 mmol/L; L-glutamine (PAA Laboratories, GmbH, Pasching, Austria), 10 mmol/L HEPES (MP Biomedicals, lLLKIRCH, France) and 1 mmol/L sodium pyruvate (GIBCO, Grand Island, NY, USA). Cells were harvested and 2 × 10^5 cells/mL were then added to 24-well tissue culture plates. Differentiation of cells was performed by adding 20 ng/mL of phorbol myristate acetate (PMA) (SERVA, Heidelberg, Germany), and by incubation at 37 °C for 24 h in 5% CO2. […] The supernatants were analyzed for the level of TNF-α using Human TNF-α ELISA Kit (R&D Systems, Minneapolis, USA).
Briefly the working concentration of 4 μg/mL in PBS from 720 μg/mL of mouse anti-human TNF-α capture antibodies were used for coating of 96 well ELISA plate. […] The reaction was stopped by adding 50 μL of stop solution (2 N H2SO4) and plate was then read at wavelength of 450 nm in ELISA reader (ELX800 NB, DIA LAB, Wr. Neudrof, Austria).

Structure (SMILES): CC(=O)CCCCn1c(=O)c2c(ncn2C)n(C)c1=O [Pentoxifylline]
- IC50: 341 ± 7.54 µM
